Assay results: patent publication US20240165114A1, “TREATMENT OF DIABETIC NEPHROPATHY WITH AN sGC STIMULATOR” (Cyclerion Therapeutics, Inc., priority 2019, published 2024)

Legend:
Assay type in all cases: in vivo, human
[1] = system: adult patients with type 2 diabetes mellitus with albuminuria; assay: Phase 2 study: 24-hour ambulatory blood pressure monitoring (ABPM); details: ITT, 24-Hour ABPM
Procedure: Hemodynamic and vital signs that were measure included seated and standing BP (systolic and diastolic) and pulse measurements by automated office blood pressure (AOBP), ambulatory BP (systolic and diastolic) and pulse monitoring, respiratory rate, oral temperature. Orthostatic (standing minus seated) measurements were calculated for BPs and pulse.
(§1) This multicenter, randomized, double-blind, placebo-controlled, parallel-group study evaluated 2 dose levels of IW-1973 compared with placebo. The study population consisted of adult patients with type 2 diabetes mellitus, albuminuria, and impaired renal function. Patients had to have been taking antihyperglycemic medications for at least 12 weeks with their regimen being stable (ie, drug and dose) for at least 28 days before the Randomization Visit. Additionally, patients had to have been on a stable regimen of angiotensin-converting enzyme inhibitor (ACEi) or an angiotensin receptor blocker (ARB), for at least 28 days before the Randomization Visit. For more details, see Inclusion Criteria below. A total of 156 patients (approximately 50 patients per arm) were stratified by baseline estimated glomerular filtration rate (eGFR) into three groups: eGFR 30 to 45, >45 to 60, and >60 to 75 mL/min/1.73 m^2) and randomized approximately 1:1:1 to total daily 20 mg IW-1973, 40 mg IW-1973, or placebo.
Screening Period: The Screening Period began with the signature of the informed consent form (ICF) at the Screening Visit and lasted up to 45 days. At the Screening Visit (which could occur from Day −45 to Day −15), patients underwent preliminary screening procedures to determine their eligibility. Eligible patients returned to the clinic for the Baseline Visit ([…]) for baseline and eligibility assessments including 24-hour ambulatory blood pressure monitoring (ABPM). The end of the Screening Period coincided with the beginning of the Treatment Period.
Dosing on Days 1 to 7 (±1) was BID (twice daily), morning and evening; dosing on Day 8 (±1) and onward was QD (once daily), 2 tablets in the morning. At the Randomization Visit on Day 1, patients received their morning dose of study drug in the clinic and underwent safety, efficacy, and pharmacokinetic (PK) assessments, including blood and urine collections at prespecified times. Patients stayed in the clinic at least 6 hours postdose and were able to leave the clinic at the Investigator's discretion following all study procedures. At the Week 1 Visit on Day 8 (±1), patients returned to the clinic and received their first QD dose of study drug in the clinic. Patients underwent safety, efficacy, and PK assessments, including blood and urine collections at prespecified times. Patients stayed in the clinic at least 6 hours postdose and were able to leave the clinic at the Investigator's discretion following all study procedures. At the Week 4 (Day 29±3), Week 8 (Day 57±3), and End of Treatment (Day 87±3) Visits, patients returned to the clinic for study drug administration; safety, efficacy, and PK assessments; and study drug supply, if applicable.

[2] = system: adult patients with type 2 diabetes mellitus with albuminuria; assay: Phase 2 study: fasting plasma glucose; details: ITT
Excerpt: (§2) Other secondary objectives of this clinical study included the evaluation of the pharmacokinetic (PK) concentrations of oral IW-1973 and the exploration of the effect of oral IW-1973 on hemodynamics and metabolic effects when administered daily for approximately 12 weeks to adult patients with type 2 diabetes mellitus with albuminuria (i.e., DN patients) who were on a stable regimen of renin-angiotensin system inhibitors (RAAS inhibitors, i.e., ACEi's and ARBs).
(§3) Clinical laboratory assessments obtained during the performance of this clinical trial included: complete blood count, serum chemistry panel, urinalysis, coagulation panel, estimated glomerular filtration rate (eGFR; determined by the Chronic Kidney Disease Epidemiology Collaboration [CKD-EPI] creatinine equation), hemoglobin A1c (HbA1C), Homeostatic Model Assessment to estimate insulin resistance (HOMA-IR), platelet function assessment (using VerifyNow®, at a subset of sites), urine pregnancy, and screens for hepatitis, human immunodeficiency virus, and drugs of abuse.
as §1

[3] = system: adult patients with type 2 diabetes mellitus with albuminuria; assay: Phase 2 study: serum LDL cholesterol; details: for Serum LDL Cholesterol: Between PRL and PBO Group LS Mean Change from Baseline at week 12 / Serum LDL Cholesterol: Within Group LS Mean Change from Baseline at Week 12: ITT; for LDL Cholesterol: Placebo Adjusted LS Mean Change from Baseline at Week 12 / LDL Cholesterol: Within Group LS Mean Change from Baseline at Week 12: mITT Population
Excerpt: as §2, §3, §1

SMILES: OC(CNc1nc(-c2cc(-c3ccon3)n(Cc3ccccc3F)n2)ncc1F)(C(F)(F)F)C(F)(F)F [Compound I, praliciguat]
- Between PRL and PBO Group LS Mean Change 24-hour MAP from Baseline at week 12 ([1]; PRL 20 mg): −3.96 mmHg
- Between PRL and PBO Group LS Mean Change 24-hour SBP from Baseline at week 12 ([1]; PRL 20 mg): −4.06 mmHg
- Within Group LS Mean Change from Baseline 24-hour MAP at Week 12 ([1]; PRL 20 mg): −3.62 mmHg
- Within Group LS Mean Change from Baseline 24-hour SBP at Week 12 ([1]; PRL 20 mg): −4.18 mmHg
- Between PRL and PBO Group LS Mean Change 24-hour MAP from Baseline at week 12 ([1]; PRL 40 mg): −3.58 mmHg
- Between PRL and PBO Group LS Mean Change 24-hour SBP from Baseline at week 12 ([1]; PRL 40 mg): −4.29 mmHg
- Within Group LS Mean Change from Baseline 24-hour MAP at Week 12 ([1]; PRL 40 mg): −3.23 mmHg
- Within Group LS Mean Change from Baseline 24-hour SBP at Week 12 ([1]; PRL 40 mg): −4.41 mmHg
- Between PRL and PBO Group LS Mean Change 24-hour MAP from Baseline at week 12 ([1]; PRL Combined): −3.77 mmHg
- Between PRL and PBO Group LS Mean Change 24-hour SBP from Baseline at week 12 ([1]; PRL Combined): −4.17 mmHg
- Within Group LS Mean Change from Baseline 24-hour MAP at Week 12 ([1]; PRL Combined): −3.43 mmHg
- Within Group LS Mean Change from Baseline 24-hour SBP at Week 12 ([1]; PRL Combined): −4.30 mmHg
- Fasting Plasma Glucose: Between PRL and PBO Group LS Mean Change from Baseline at week 12 ([2]; PRL 20 mg): 2.3 mg/dL
- Fasting Plasma Glucose: Within Group LS Mean Change from Baseline at Week 12 ([2]; PRL 20 mg): 6.09 mg/dL
- Fasting Plasma Glucose: Between PRL and PBO Group LS Mean Change from Baseline at week 12 ([2]; PRL 40 mg): -18.2 mg/dL
- Fasting Plasma Glucose: Within Group LS Mean Change from Baseline at Week 12 ([2]; PRL 40 mg): -14.4 mg/dL
- Fasting Plasma Glucose: Between PRL and PBO Group LS Mean Change from Baseline at week 12 ([2]; PRL Combined): -7.9 mg/dL
- Fasting Plasma Glucose: Within Group LS Mean Change from Baseline at Week 12 ([2]; PRL Combined): -4.1 mg/dL
- Serum LDL Cholesterol: Between PRL and PBO Group LS Mean Change from Baseline at week 12 ([3]; PRL 20 mg): -8.9 mg/dL
- Serum LDL Cholesterol: Within Group LS Mean Change from Baseline at Week 12 ([3]; PRL 20 mg): -6.0 mg/dL
- Serum LDL Cholesterol: Between PRL and PBO Group LS Mean Change from Baseline at week 12 ([3]; PRL 40 mg): -6.2 mg/dL
- Serum LDL Cholesterol: Within Group LS Mean Change from Baseline at Week 12 ([3]; PRL 40 mg): -3.3 mg/dL
- Serum LDL Cholesterol: Between PRL and PBO Group LS Mean Change from Baseline at week 12 ([3]; PRL Combined): -7.5 mg/dL
- Serum LDL Cholesterol: Within Group LS Mean Change from Baseline at Week 12 ([3]; PRL Combined): -4.6 mg/dL
- LDL Cholesterol: Placebo Adjusted LS Mean Change from Baseline at Week 12 ([3]; PRL 20 mg): -13.4 mg/dL
- LDL Cholesterol: Within Group LS Mean Change from Baseline at Week 12 ([3]; PRL 20 mg): -8.8 mg/dL
- LDL Cholesterol: Placebo Adjusted LS Mean Change from Baseline at Week 12 ([3]; PRL 40 mg): -9.5 mg/dL
- LDL Cholesterol: Within Group LS Mean Change from Baseline at Week 12 ([3]; PRL 40 mg): -4.9 mg/dL
- LDL Cholesterol: Placebo Adjusted LS Mean Change from Baseline at Week 12 ([3]; PRL Combined): -11.4 mg/dL
- LDL Cholesterol: Within Group LS Mean Change from Baseline at Week 12 ([3]; PRL Combined): -6.9 mg/dL
